Broadly, the IC50 is the concentration that inhibits the measured activity by half. In general, half-life refers to how long it takes for the measured level to halve. A higher half-life goes with slow decline.

From patent publication US9963486B2, “Peptidomimetics for treating HER2-overexpressed cancer” (Board of Supervisors for the University of Louisiana System, priority 2014, dated 2018) come the findings set out here.

The subject of data set [1] is BT-474 HER2-overexpressing breast cancer cells.
Protocol: (§1) Compounds were tested for antiproliferative activity against several cancer cell lines and a control cell line. […] CP was the control peptidomimetic. […] SKOV-3 and Calu-3 are HER2-overexpressing ovarian and lung cancer cells, respectively. (+) and (−) indicate HER2-positive and HER2-negative, respectively.
In data set [2] the test system is SKBR-3 HER2-overexpressing breast cancer cells.
Protocol: as §1
The test system of data set [3] is Calu-3 HER2-overexpressing lung cancer cells.
Protocol: as §1
Data set [4] relates to HER2-expressing breast tumors (BT-474 cells). In words: BT-474 xenograft model of breast cancer, tumor volume. It counts as in vivo, nude mice. The conditions noted are these: 4 mg/kg injected just below the tumor, twice a week for 19 days; Days 9-19. The procedure: We evaluated the ability of Compound 18 to suppress HER2-expressing breast tumors in a xenograft model of breast cancer. Breast cancer tumors were induced in nude mice by injecting 2 million BT-474 cells; these estrogen-dependent cancer cells were stimulated by an implanted estrogen pellet. Compound 9, Compound 18, vehicle, or lapatinib (positive control) were injected just below the tumor at a dose of 4 mg/kg, twice a week for 19 days, for a total of 6 injections. Mice weight and health were monitored daily. Tumor size was measured with Vernier calipers. Tumor volume was estimated using the formula Volume=length×0.5 (width)^2. At the end of the experimental period, mice were euthanized and tumor sections were removed and frozen for further analysis. FIG. 9 depicts tumor volume as a function of time for the various treatments.

Data set [5] has as its system SKOV-3 HER2-overexpressing ovarian cancer cells.
Protocol: as §1
Data set [6] is described as follows: Stability in mouse serum (electrospray-mass spectrometry).
Protocol: (§2) Compounds were incubated in mouse serum for various times, and then extracted using a solid-phase extraction technique. The compounds were analyzed with electrospray-mass spectrometry. A known amount of a freshly-prepared internal standard was used for calibration.
The subject of data set [7] is MCF-7 breast cancer cells that do not overexpress HER2.
Protocol: as §1
The conditions of data set [8]: mouse, serum.
Protocol: as §2
Data set [9] concerns MCF-10A normal breast epithelial cell line.
In data set [10] the test system is BT-474 HER2-overexpressing breast cancer cells. In words: cells. The following applies: Homo sapiens, BT-474, read-out: IC50 BT-474 (+).
Protocol: as §1
Setting [11] is: read-out: IC50 BT-474 (+), antiproliferative activity, HER2-positive breast cancer cells, Table 3.
The mark [12] stands for this setting: read-out: IC50 SKBR-3 (+), antiproliferative activity, HER2-positive breast cancer cells, Table 3.
Setting [13] is: read-out: IC50 Calu-3 (+), antiproliferative activity, HER2-positive lung cancer cells, Table 3.
The mark [14] stands for this setting: read-out: IC50 SKOV-3 (+), antiproliferative activity, HER2-positive ovarian cancer cells, Table 3.
The mark [15] stands for this setting: read-out: IC50 MCF-7 (−), antiproliferative activity, HER2-negative breast cancer cells, Table 3.

Like-named read-outs stand apart in the source and are kept apart here. Numbered stars: 1 amine (or outer) side, 2 acyl side, 3 side chain; on linkers, the order of the positions; unused ones are H or OH. Square brackets hold non-standard residues; d marks the D form. Peptide text beside a SMILES is read from it. βAla(3R-(1-naphthyl)) = O=C(C[C@@H](N[*:1])c1cccc2ccccc12)[*:2]; X1 = O=C(CC(N[*:1])c1cccc2ccccc12)[*:2]

Take H2N-R(Anapa)FD-OH [Compound 9]: the IC50 came out at 785 ± 11 nM in data set [1] (setting [11]); 445 ± 32 nM in data set [2] (setting [12]); 847 ± 71 nM in data set [3] (setting [13]); 417 ± 55 nM in [5] (setting [14]); 45000 nM in data set [7] (setting [15]). For the same compound, the “tumor volume compared to control” value in data set [4] is recorded as “decreased tumor volume”. Moreover, the “time within which degraded in mouse serum” value in [6] (mouse serum, FIG. 10) is not above 24 h.

Turning to `N=C(N)NCCC[C@@H]1NC(=O)[C@H]2CCCN2C(=O)[C@@H]2CCCN2C(=O)[C@H](CCCNC(=N)N)NC(=O)CC(c2cccc3ccccc23)NC(=O)[C@H](Cc2ccccc2)NC(=O)[C@H](CC(=O)O)NC(=O)[C@H](CC(=O)O)NC(=O)[C@H](Cc2ccccc2)NC(=O)CC(c2cccc3ccccc23)NC1=O` (some centres unmarked) [Compound 18, Cyclo(1,10)PpR(Anapa)FDDF(Anapa)R] (cyclo(P[dP]R[X1]FDDF[X1]R)), the IC50 in data set [2] (setting [12]) was 194 ± 46 nM; in [3] (setting [13]), 18 ± 13 nM; in data set [5] (setting [14]), 853 ± 102 nM; in [9] (read-out: IC50 MCF-10A, antiproliferative activity, normal breast epithelial cell line), 40000 nM; in [7] (setting [15]), more than 50000 nM. This compound had a half-life in [8] of more than 48 h. Also, the “toxicity to normal cells” value in data set [9] is recorded as “not toxic to normal cells”.

For the compound `N=C(N)NCCC[C@@H]1NC(=O)[C@H]2CCCN2C(=O)[C@@H]2CCCN2C(=O)[C@H](CCCCN)NC(=O)C[C@H](c2cccc3ccccc23)NC(=O)[C@H](Cc2ccccc2)NC(=O)[C@H](CC(=O)O)NC(=O)[C@H](CC(=O)O)NC(=O)[C@H](Cc2ccccc2)NC(=O)C[C@H](c2cccc3ccccc23)NC1=O` [Compound 33, Cyclo(PpR-(R)Anapa-FDDF-(R)Anapa-K], the IC50 is 400 ± 140 nM in data set [1], 500 ± 280 nM in data set [2], 900 ± 200 nM in data set [3] and more than 100000 nM in [7].

In the case of `N=C(N)NCCC[C@H]1NC(=O)[C@H]2CCCN2C(=O)[C@@H]2CCCN2C(=O)[C@@H](CCCNC(=N)N)NC(=O)C[C@H](c2cccc3ccccc23)NC(=O)[C@@H](Cc2ccccc2)NC(=O)[C@@H](CC(=O)O)NC(=O)[C@@H](CC(=O)O)NC(=O)[C@@H](Cc2ccccc2)NC(=O)C[C@H](c2cccc3ccccc23)NC1=O` [Compound 38, Cyclo(Ppr-(R)Anapa-fddf-(R)Anapa-r] (cyclo(P[dP][dR][βAla(3R-(1-naphthyl))][dF][dD][dD][dF][βAla(3R-(1-naphthyl))][dR])), the IC50 in data set [1] (read-out: Antiproliferative activity IC50 BT-474, Table 5) turned out to be 860 ± 50 nM; in data set [2] (read-out: Antiproliferative activity IC50 SKBR-3, Table 5) it was 800 ± 70 nM; in [3] (read-out: Antiproliferative activity IC50 Calu-3, Table 5), 550 ± 200 nM; in [7] (read-out: Antiproliferative activity IC50 MCF-7, Table 5), 13500 ± 700 nM.

In the case of `CC(=O)N[C@H](Cc1ccccc1)C(=O)NC(CC(=O)N[C@H](CCCNC(=N)N)C(N)=O)c1cccc2ccccc12` (some centres unmarked) [Compound 21, Ac-f(Anapa)r-NH2], the IC50 is 595 ± 270 nM in data set [1]; 373 ± 150 nM in [2]; 1090 ± 310 nM in data set [3]; 373 ± 150 nM in data set [5]; more than 50000 nM in data set [7].

As for `N=C(N)NCCC[C@H]1NC(=O)[C@H]2CCCN2C(=O)[C@@H]2CCCN2C(=O)[C@@H](CC(=O)O)NC(=O)[C@@H](Cc2ccccc2)NC(=O)C[C@H](c2cccc3ccccc23)NC(=O)[C@@H](CCCNC(=N)N)NC(=O)[C@@H](CC(=O)O)NC(=O)[C@@H](Cc2ccccc2)NC(=O)C[C@H](c2cccc3ccccc23)NC1=O` [Compound 41, Cyclo(Ppr-(R)Anapa-fdr-(R)Anapa-fd] (cyclo(P[dP][dR][βAla(3R-(1-naphthyl))][dF][dD][dR][βAla(3R-(1-naphthyl))][dF][dD])), the IC50 in data set [1] amounted to 850 ± 70 nM.

Regarding “H2N-K(3-amino-biphenyl propionic acid)F-OH [CP, reference compound]”, the IC50 in data set [1] (setting [11]), in data set [2] (setting [12]), in data set [3] (setting [13]), in data set [5] (setting [14]) and in data set [7] (setting [15]) was more than 100000 nM throughout.

As to `N=C(N)NCCC[C@H](N)C(=O)NC(CC(=O)N[C@@H](Cc1ccccc1)C(=O)O)c1cccc2ccccc12` (some centres unmarked) [Compound 5, H2N-R(Anapa)F-OH], the IC50 in data set [2] (setting [12]) stood at 396 ± 22 nM; in [5] (setting [14]), 658 ± 40 nM. In addition, the half-life in [6] (mouse, serum) was in the range of 2 to 3 h.

Turning to `CS(=O)(=O)CCNCc1ccc(-c2ccc3ncnc(Nc4ccc(OCc5cccc(F)c5)c(Cl)c4)c3c2)o1` [Lapatinib, reference compound], in data set [4], the “tumor volume compared to control” value is “decreased tumor volume”. In addition, the IC50 in [10] came out at 25 ± 4 nM.
